The target in this test is T1, F508del CFTR (Homo sapiens, UniProt P13569, DEL508-508).
T1 construct: Primary CF airway epithelial cells were obtained from the UNC Cystic Fibrosis Tissue Procurement and Cell Culture Core; host or cells: primary CF airway epithelial cells
T1 sequence (P13569 with tags, fused parts or gaps DEL508-508): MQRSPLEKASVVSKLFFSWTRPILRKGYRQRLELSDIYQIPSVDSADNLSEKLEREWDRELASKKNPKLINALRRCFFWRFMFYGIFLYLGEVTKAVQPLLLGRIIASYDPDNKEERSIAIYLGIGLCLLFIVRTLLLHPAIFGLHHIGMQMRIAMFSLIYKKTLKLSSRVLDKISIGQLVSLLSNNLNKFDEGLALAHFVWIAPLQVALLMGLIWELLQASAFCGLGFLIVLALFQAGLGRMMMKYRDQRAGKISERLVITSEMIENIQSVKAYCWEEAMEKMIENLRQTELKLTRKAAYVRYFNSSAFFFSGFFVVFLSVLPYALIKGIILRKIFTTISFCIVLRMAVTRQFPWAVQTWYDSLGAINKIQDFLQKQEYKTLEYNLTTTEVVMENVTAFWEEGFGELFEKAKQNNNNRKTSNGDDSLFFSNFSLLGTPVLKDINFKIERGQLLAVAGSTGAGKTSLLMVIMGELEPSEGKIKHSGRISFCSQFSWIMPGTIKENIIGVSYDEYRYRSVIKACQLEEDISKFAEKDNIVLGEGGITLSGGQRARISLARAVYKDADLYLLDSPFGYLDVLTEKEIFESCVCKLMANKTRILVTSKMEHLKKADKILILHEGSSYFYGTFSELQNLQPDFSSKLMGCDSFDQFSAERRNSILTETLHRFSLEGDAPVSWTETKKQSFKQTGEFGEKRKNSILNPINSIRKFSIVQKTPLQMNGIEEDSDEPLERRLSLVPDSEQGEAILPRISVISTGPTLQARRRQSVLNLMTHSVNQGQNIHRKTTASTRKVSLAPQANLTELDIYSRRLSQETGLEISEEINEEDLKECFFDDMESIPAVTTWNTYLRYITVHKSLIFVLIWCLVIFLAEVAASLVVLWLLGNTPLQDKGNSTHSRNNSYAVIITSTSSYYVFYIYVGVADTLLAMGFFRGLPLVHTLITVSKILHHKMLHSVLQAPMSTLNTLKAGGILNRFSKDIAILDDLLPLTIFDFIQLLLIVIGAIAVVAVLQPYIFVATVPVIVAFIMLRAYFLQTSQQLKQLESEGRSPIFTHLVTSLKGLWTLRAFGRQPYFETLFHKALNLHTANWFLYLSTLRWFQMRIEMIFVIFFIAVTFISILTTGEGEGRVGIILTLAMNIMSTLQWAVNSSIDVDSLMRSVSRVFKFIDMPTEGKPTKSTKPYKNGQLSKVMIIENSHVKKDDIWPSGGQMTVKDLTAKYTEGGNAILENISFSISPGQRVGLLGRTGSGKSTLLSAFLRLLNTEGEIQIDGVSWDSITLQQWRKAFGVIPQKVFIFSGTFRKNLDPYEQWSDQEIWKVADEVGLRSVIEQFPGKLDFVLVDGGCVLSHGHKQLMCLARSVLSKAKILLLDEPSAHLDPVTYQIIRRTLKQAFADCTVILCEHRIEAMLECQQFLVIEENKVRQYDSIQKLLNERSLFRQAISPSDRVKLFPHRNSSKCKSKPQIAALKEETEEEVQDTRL
The test is described as follows: Equivalent current assay in primary CF airway epithelial cells (Corrector Activity, NAUC normalized to 3 μM VX809). The format is cell-based. To be noted: NAUC as % of positive control (VX-809). The method in brief:
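Differentiated primary CF airway cells treated basolaterally 24 h at 37° C with compound (0.1% DMSO). Equivalent current recorded after 5 μM benzamil, stimulation with 10 μM forskolin plus 1 μM VX-770 or 3 μM FDL176, and block by 20 μM CFTR-172; vehicle-subtracted AUC normalized to 3 μM VX809; EC50 from sigmoid fit, Hill slope 1.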
For the compound `CCN(C(=O)Cn1nc(-c2cc(Cl)cc(C#N)c2)c2oc(C3CC3)cc2c1=O)c1ccc2c(c1)OC(F)(F)O2` [Example 224], the “Corr Activity (NAUC)” value is reported as “+++ (NAUC>70% of positive control)”. With `O=C(Cn1nc(-c2cccc(F)c2)c2[nH]cnc2c1=O)N1CCCc2c1ccc1c2OC(F)(F)O1` [Example 373] the entry was “+++ (NAUC>70% of positive control)”; with `CCN(C(=O)Cn1nc(-c2cc(C#N)cc(OC)c2)c2oc(C3CCC3)cc2c1=O)c1ccc2c(c1)OC(F)(F)O2` [Example 239], “+ (NAUC<40% of positive control)”.

Take `Cc1nc2ccc(N(C)C(=O)Cn3nc(-c4cccc(Cl)c4)c4oc(C5CC5)cc4c3=O)cc2o1` [Example 218]: the “Corr Activity (NAUC)” value is “+++ (NAUC>70% of positive control)”. As for `N#Cc1cccc(-c2nn(CC(=O)N3CCCc4c3ccc3c4OC(F)(F)O3)c(=O)c3ccoc23)c1` [Example 52], the entry is “++ (NAUC 70-40% of positive control)”; as for `Cn1c2ccccc2c2cc(-c3nn(CC(=O)N(c4ccc5c(c4)OC(F)(F)O5)C4CC4)c(=O)c4nc[nH]c34)ccc21` [Example 425], “+ (NAUC<40% of positive control)”; as for `CCN(C(=O)Cn1nc(-c2cc(C#N)cc(C(C)(C)C)c2)c2oc(C(F)F)cc2c1=O)c1ccc2c(c1)OC(F)(F)O2` [Example 188], “+++ (NAUC>70% of positive control)”.

As to `CCN(C(=O)Cn1nc(-c2cccc(C#N)c2)c2oc(C(=O)NC(C)(C)C)cc2c1=O)c1ccc2c(c1)OC(F)(F)O2` [Example 121], the “Corr Activity (NAUC)” value is given as “+++ (NAUC>70% of positive control)”. With `CC(O)c1cc2c(=O)n(CC(=O)N(C)c3ccc4c(c3)OC(F)(F)O4)nc(-c3cccc(Cl)c3)c2o1` (stereo not shown) [Example 183, 2-(7-(3-chlorophenyl)-2-(1-hydroxyethyl)-4-oxofuro[2,3-d]pyridazin-5(4H)-yl)-N-(2,2-difluorobenzo[d][1,3]dioxol-5-yl)-N-methylacetamide] the entry was “+++ (NAUC>70% of positive control)”; with `CCN(C(=O)Cn1nc(-c2cccc(C#N)c2)c2occc2c1=O)c1ccc2c(c1F)OC(F)(F)O2` [Example 60], “+++ (NAUC>70% of positive control)”.

With `CCN(C(=O)Cn1nc(-c2cccc(F)c2)c2occc2c1=O)c1ccc2c(c1F)OC(F)(F)O2` [Example 109], the “Corr Activity (NAUC)” value is on record as “+++ (NAUC>70% of positive control)”. As for `Cc1cc2c(=O)n(CC(=O)N(C)c3ccc4c(c3)OC(F)(F)O4)nc(-c3cc(F)cc(F)c3)c2o1` [Example 71], the “Corr Activity (NAUC)” value was “+++ (NAUC>70% of positive control)”. With `CCN(C(=O)Cn1nc(-c2ccc(C(=O)NCc3ccccc3)c(Cl)c2)c2[nH]cnc2c1=O)c1ccc2c(c1)OC(F)(F)O2` [Example 330] the entry was “+ (NAUC<40% of positive control)”; with `CCN(C(=O)Cn1nc(-c2cccc(C#N)c2)c2oc(C(=O)NC3(C(F)(F)F)CC3)cc2c1=O)c1ccc2c(c1)OC(F)(F)O2` [Example 153], “+++ (NAUC>70% of positive control)”; with `CCN(C(=O)Cn1nc(-c2ccc(Cl)c(Cl)c2)c2[nH]cnc2c1=O)c1ccc2c(c1)OC(F)(F)O2` [Example 322], “+++ (NAUC>70% of positive control)”. With `Cc1c(N(C)C(=O)Cn2nc(-c3cc(F)cc(C#N)c3)c3oc(C(=O)NC(C)(C)C)cc3c2=O)ccc2c1OC(F)(F)O2` [Example 139] the entry was “+++ (NAUC>70% of positive control)”; with `COC(=O)c1cc(Cl)cc(-c2nn(CC(=O)N(c3ccc4c(c3)OC(F)(F)O4)C3CC3)c(=O)c3nc[nH]c23)c1` [Example 390], “+ (NAUC<40% of positive control)”.

Consider `CN(C(=O)Cn1nc(-c2cc(Cl)cc(C#N)c2)c2[nH]cnc2c1=O)c1ccc2c(c1)OC(F)(F)O2` [Example 243], for which the “Corr Activity (NAUC)” value is listed as “+++ (NAUC>70% of positive control)”.

Regarding `CCN(C(=O)Cn1nc(-c2cccc(C#N)c2)c2oc(C(=O)NC3(C)CC3)cc2c1=O)c1ccc2c(c1)OC(F)(F)O2` [Example 206], the “Corr Activity (NAUC)” value is listed as “++ (NAUC 70-40% of positive control)”. With `CCN(C(=O)Cn1nc(-c2ccc(CS(C)(=O)=O)c(Cl)c2)c2[nH]cnc2c1=O)c1ccc2c(c1)OC(F)(F)O2` [Example 363] the entry was “+ (NAUC<40% of positive control)”; with `CCN(C(=O)Cn1nc(-c2ccc3c(cnn3C(C)C)c2)c2[nH]cnc2c1=O)c1ccc2c(c1)OC(F)(F)O2` [Example 310], “+ (NAUC<40% of positive control)”; with `CCN(C(=O)Cn1nc(-c2ccc3cc(OC)ccc3c2)c2[nH]cnc2c1=O)c1ccc2c(c1)OC(F)(F)O2` [Example 289], “+++ (NAUC>70% of positive control)”. With `Cc1cc2c(=O)n(CC(=O)N(c3ccc4c(c3)OC(F)(F)O4)C3CC3)nc(-c3cc(F)cc(F)c3)c2o1` [Example 78] the entry was “+++ (NAUC>70% of positive control)”. As for `CCN(C(=O)Cn1nc(-c2cc(C)cc(C#N)c2)c2oc(C(=O)NC(C)(C)C)cc2c1=O)c1ccc2c(c1)OC(F)(F)O2` [Example 131], the entry is “+++ (NAUC>70% of positive control)”; as for `CN(C(=O)Cn1nc(-c2cc(C#N)cc(C(=O)O)c2)c2occc2c1=O)c1ccc2c(c1)OC(F)(F)O2` [Example 213, 3-cyano-5-(5-(2-((2,2-difluorobenzo[d][1,3]dioxol-5-yl)(methyl)amino)-2-oxoethyl)-4-oxo-4,5-dihydrofuro[2,3-d]pyridazin-7-yl)benzoic acid], “+ (NAUC<40% of positive control)”. `CCN(C(=O)Cn1nc(-c2cc(F)cc(Cl)c2)c2oc(C)cc2c1=O)c1ccc2c(c1)OC(F)(F)O2` [Example 75]: the “Corr Activity (NAUC)” value is listed as “+++ (NAUC>70% of positive control)”.

For the compound `CCN(C(=O)Cn1nc(-c2cccc(C#N)c2)c2oc(CN3CCOCC3)cc2c1=O)c1ccc2c(c1)OC(F)(F)O2` [Example 202], the “Corr Activity (NAUC)” value was “+++ (NAUC>70% of positive control)”. As for `CCN(C(=O)Cn1nc(-c2cc(Cl)cc(Cl)c2)c2oc(C)cc2c1=O)c1ccc2c(c1)OC(F)(F)O2` [Example 73], the entry is “+++ (NAUC>70% of positive control)”; as for `CCN(C(=O)Cn1nc(-c2ccc(OC)c(C#N)c2)c2[nH]cnc2c1=O)c1ccc2c(c1)OC(F)(F)O2` [Example 346], “+++ (NAUC>70% of positive control)”. As for `CCN(C(=O)Cn1nc(-c2cccc(Cl)c2)c2c(c1=O)CCC2)c1ccc2nc(C)oc2c1` [Example 49], the entry is “++ (NAUC 70-40% of positive control)”.

In the case of `CCN(C(=O)Cn1nc(-c2cccc(C(C)(C)C)c2)c2occc2c1=O)c1ccc2c(c1)OC(F)(F)O2` [Example 88], the “Corr Activity (NAUC)” value was “++ (NAUC 70-40% of positive control)”. For the compound `CCN(C(=O)Cn1nc(-c2ccc(Cl)c(OC)c2)c2[nH]cnc2c1=O)c1ccc2c(c1)OC(F)(F)O2` [Example 329], the “Corr Activity (NAUC)” value is reported as “+ (NAUC<40% of positive control)”.

On to `N#Cc1cc(F)cc(-c2nn(CC(=O)N3CCCc4c3ccc3c4OC(F)(F)O3)c(=O)c3ccoc23)c1` [Example 104], for which the “Corr Activity (NAUC)” value was “+++ (NAUC>70% of positive control)”. As for `CCN(C(=O)Cn1nc(-c2cc(F)cc(C#N)c2)c2[nH]cnc2c1=O)c1ccc2c(c1)OC(F)(F)O2` [Example 242], the entry is “+++ (NAUC>70% of positive control)”; as for `COCCOc1cc(Cl)cc(-c2nn(CC(=O)N(c3ccc4c(c3)OC(F)(F)O4)C3CC3)c(=O)c3nc[nH]c23)c1` [Example 399], “++ (NAUC 70-40% of positive control)”. With `CN(C(=O)Cn1nc(-c2cccc(C#N)c2)c2oc(C3CCC3)cc2c1=O)c1ccc2c(c1)OC(F)(F)O2` [Example 233] the entry was “++ (NAUC 70-40% of positive control)”; with `N#Cc1cccc(-c2nn(CC(=O)N(c3ccc4c(c3)OC(F)(F)O4)C3CCC3)c(=O)c3ccoc23)c1` [Example 33, 2-(7-(3-cyanophenyl)-4-oxofuro[2,3-d]pyridazin-5(4H)-yl)-N-cyclobutyl-N-(2,2-difluorobenzo[d][1,3]dioxol-5-yl)acetamide], “+++ (NAUC>70% of positive control)”. `CCN(C(=O)Cn1nc(-c2cc(F)cc(C#N)c2)c2oc(C)cc2c1=O)c1ccc2c(c1)OC(F)(F)O2` [Example 76]: the “Corr Activity (NAUC)” value is “+++ (NAUC>70% of positive control)”. With `CCN(C(=O)Cn1nc(-c2cc(Cl)cc(C(=O)N(C)C)c2)c2[nH]cnc2c1=O)c1ccc2c(c1)OC(F)(F)O2` [Example 267] the entry was “+ (NAUC<40% of positive control)”. With `CCN(C(=O)Cn1nc(-c2cc(C#N)cc(OC)c2)c2oc(C3CC3)cc2c1=O)c1ccc2c(c1)OC(F)(F)O2` [Example 226] the entry was “+++ (NAUC>70% of positive control)”; with `CCN(C(=O)Cn1nc(-c2cc(C)cc(C#N)c2)c2[nH]cnc2c1=O)c1ccc2c(c1)OC(F)(F)O2` [Example 246], “+++ (NAUC>70% of positive control)”. With `CCN(C(=O)Cn1nc(-c2cc(F)cc(OCC(C)C)c2)c2[nH]cnc2c1=O)c1ccc2c(c1)OC(F)(F)O2` [Example 264] the entry was “++ (NAUC 70-40% of positive control)”; with `Cc1cc2c(=O)n(CC(=O)N(c3ccc4c(c3)OC(F)(F)O4)C3CC3)nc(-c3cc(Cl)cc(Cl)c3)c2o1` [Example 77], “+++ (NAUC>70% of positive control)”. Regarding `CCN(C(=O)Cn1nc(-c2cccc(C#N)c2)c2oc(CN3CCCC3)cc2c1=O)c1ccc2c(c1)OC(F)(F)O2` [Example 203], the “Corr Activity (NAUC)” value is “+++ (NAUC>70% of positive control)”. With `CCN(C(=O)Cn1nc(-c2cccc(F)c2)c2oc(C(=O)NC(C)(C)C)cc2c1=O)c1ccc2c(c1)OC(F)(F)O2` [Example 119] the entry was “+++ (NAUC>70% of positive control)”. As for `O=C(Cn1nc(-c2cccc(Cl)c2)c2[nH]cnc2c1=O)N(c1ccc2c(c1)OC(F)(F)O2)C1CC1` [Example 371], the entry is “++ (NAUC 70-40% of positive control)”.

Values taken from patent US20220402925A1, “COMPOUNDS AND METHODS FOR THE TREATMENT OF CYSTIC FIBROSIS” (Flatley Discovery Lab, LLC, priority 2019, published 2022).
